Test results: ChEMBL document CHEMBL1806429, “Angiotensin-I-converting enzyme inhibitory peptides: Chemical feature based pharmacophore generation” (Eur J Med Chem, 2011)
Residues, ends and D or L forms follow the SMILES beside them.

Target: T1, Angiotensin-converting enzyme (Oryctolagus cuniculus, UniProt P12822)
T1 sequence (P12822 whole entry): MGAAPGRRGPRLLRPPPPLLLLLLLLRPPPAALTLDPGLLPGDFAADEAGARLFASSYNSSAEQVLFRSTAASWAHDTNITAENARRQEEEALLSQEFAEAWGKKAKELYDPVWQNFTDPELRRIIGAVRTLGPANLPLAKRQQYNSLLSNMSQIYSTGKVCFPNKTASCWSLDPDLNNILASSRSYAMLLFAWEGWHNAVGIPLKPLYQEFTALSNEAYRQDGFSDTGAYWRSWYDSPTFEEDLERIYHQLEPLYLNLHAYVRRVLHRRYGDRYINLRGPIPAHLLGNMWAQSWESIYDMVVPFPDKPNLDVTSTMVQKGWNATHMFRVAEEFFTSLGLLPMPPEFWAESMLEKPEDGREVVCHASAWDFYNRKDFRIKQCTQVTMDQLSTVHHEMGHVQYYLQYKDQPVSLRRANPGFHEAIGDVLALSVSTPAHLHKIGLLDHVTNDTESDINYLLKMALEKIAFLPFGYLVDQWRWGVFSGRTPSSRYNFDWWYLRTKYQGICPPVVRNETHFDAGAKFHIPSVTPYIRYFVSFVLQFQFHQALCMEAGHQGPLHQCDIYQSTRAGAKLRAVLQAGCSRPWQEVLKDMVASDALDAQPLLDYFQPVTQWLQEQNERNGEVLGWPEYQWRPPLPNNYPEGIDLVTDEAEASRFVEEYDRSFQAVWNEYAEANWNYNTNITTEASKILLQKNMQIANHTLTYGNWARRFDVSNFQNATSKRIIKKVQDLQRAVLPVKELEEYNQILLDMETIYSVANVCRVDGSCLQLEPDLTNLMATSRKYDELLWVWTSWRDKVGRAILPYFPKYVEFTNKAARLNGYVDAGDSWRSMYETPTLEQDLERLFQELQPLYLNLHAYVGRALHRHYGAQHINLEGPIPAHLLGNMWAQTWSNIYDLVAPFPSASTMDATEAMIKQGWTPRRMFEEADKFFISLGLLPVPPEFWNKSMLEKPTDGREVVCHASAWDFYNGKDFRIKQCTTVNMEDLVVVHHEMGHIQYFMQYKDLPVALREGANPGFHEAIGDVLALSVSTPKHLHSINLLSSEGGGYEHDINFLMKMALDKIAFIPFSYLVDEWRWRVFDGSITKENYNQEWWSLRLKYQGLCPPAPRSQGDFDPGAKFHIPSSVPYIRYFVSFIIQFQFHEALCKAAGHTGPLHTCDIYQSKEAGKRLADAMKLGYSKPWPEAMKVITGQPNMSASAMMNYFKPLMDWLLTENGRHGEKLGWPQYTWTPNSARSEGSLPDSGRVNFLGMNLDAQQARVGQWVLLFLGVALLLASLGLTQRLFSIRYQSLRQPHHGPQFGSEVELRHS
Assay: Inhibition of rabbit lung ACE preincubated for 5 mins by spectrophotometric assay

In order of rising IC50:
1. CC(C)C[C@H](N)C(=O)N[C@@H](CCCCN)C(=O)N1CCC[C@H]1C(=O)O (H-Leu-Lys-Pro-OH)  0.32 µM
2. CC(C)C[C@H](N)C(=O)N[C@@H](C)C(=O)N1CCC[C@H]1C(=O)O (H-Leu-Ala-Pro-OH)  0.7 µM
3. CC(C)[C@H](N)C(=O)N[C@@H](C)C(=O)N1CCC[C@H]1C(=O)O (H-Val-Ala-Pro-OH)  2 µM
4. CC[C@H](C)[C@H](N)C(=O)N[C@@H](Cc1ccc(O)cc1)C(=O)O (H-Ile-Tyr-OH)  3.7 µM
5. CC(C)[C@H](N)C(=O)N[C@@H](Cc1ccc(O)cc1)C(=O)O (H-Val-Tyr-OH)  7 µM
6. CC(C)[C@H](NC(=O)[C@@H](N)Cc1ccccc1)C(=O)N[C@@H](C)C(=O)N1CCC[C@H]1C(=O)O (H-FVAP-OH)  10 µM
7. C[C@H](NC(=O)[C@@H](N)CCCNC(=N)N)C(=O)N1CCC[C@H]1C(=O)O (H-Arg-Ala-Pro-OH)  16 µM
8. CC(C)C[C@H](NC(=O)[C@@H]1CCCN1)C(=O)N[C@@H](Cc1c[nH]c2ccccc12)C(=O)O (H-Pro-Leu-Trp-OH)  36 µM
9. N[C@@H](Cc1ccccc1)C(=O)N1CCC[C@H]1C(=O)N1CCC[C@H]1C(=O)O (H-Phe-Pro-Pro-OH)  78 µM
10. CC(C)C[C@H](N)C(=O)N[C@@H](CC(N)=O)C(=O)N[C@@H](Cc1ccc(O)cc1)C(=O)O (H-Leu-Asn-Tyr-OH)  81 µM
11. O=C(NCC(=O)N1CCC[C@H]1C(=O)O)[C@@H]1CCCN1 (H-Pro-Gly-Pro-OH)  97.3 µM
12. CC[C@H](C)[C@H](N)C(=O)N1CCC[C@H]1C(=O)O (H-Ile-Pro-OH)  150 µM
13. NCCCC[C@H](NC(=O)CNC(=O)[C@@H](N)Cc1ccccc1)C(=O)O (H-Phe-Gly-Lys-OH)  160 µM
14. N[C@@H](Cc1ccccc1)C(=O)N1CCC[C@H]1C(=O)O (H-Phe-Pro-OH)  210 µM
15. O=C(N[C@@H](Cc1ccc(O)cc1)C(=O)N1CCC[C@H]1C(=O)O)[C@@H]1CCCN1 (H-Pro-Tyr-Pro-OH)  220 µM
16. NC(N)=NCCC[C@H](N)C(=O)N[C@@H](CO)C(=O)N1CCC[C@H]1C(=O)O (H-Arg-Ser-Pro-OH)  248 µM
17. CC(C)[C@H](NC(=O)[C@H](C)N)C(=O)O (H-Ala-Val-OH)  300 µM
18. CC(C)[C@H](NC(=O)[C@H](C)N)C(=O)N1CCC[C@H]1C(=O)O (H-Ala-Val-Pro-OH)  340 µM
19. CC(C)C[C@H](NC(=O)[C@@H]1CCCN1C(=O)[C@@H]1CCCN1)C(=O)O (H-Pro-Pro-Leu-OH)  427 µM
20. N[C@@H](Cc1ccc(O)cc1)C(=O)N1CCC[C@H]1C(=O)O (H-Tyr-Pro-OH)  720 µM
21. C[C@H](N)C(=O)NCC(=O)O (H-Ala-Gly-OH)  2500 µM
22. NCC(=O)N[C@@H](CCC(=O)O)C(=O)O (H-Gly-Glu-OH)  5400 µM
23. NCCCC[C@H](NC(=O)CN)C(=O)O (H-Gly-Lys-OH)  5400 µM
24. C[C@H](N)C(=O)N[C@@H](Cc1c[nH]cn1)C(=O)O (H-Ala-His-OH)  9000 µM
